Experimental data as given in PubChem BioAssay (NCI).
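Interpolation was linear, between the two tested concentrations surrounding the appropriate level; five concentrations were tested over 48 hours in 96-well plates. GI50 is the concentration that inhibits growth by half. TGI: concentration producing complete growth inhibition.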

Key:
Assay in all cases: DTP human tumour cell line panel, 48 h
SR leukemia = system: SR leukemia
786-0 renal = system: 786-0 renal
EKVX NSCLC = system: EKVX NSCLC
MDA-MB-231 breast = system: MDA-MB-231 breast
SNB-19 CNS = system: SNB-19 CNS
OVCAR-5 ovarian = system: OVCAR-5 ovarian
RXF 393 renal = system: RXF 393 renal
U251 CNS = system: U251 CNS
T-47D breast = system: T-47D breast
A549 NSCLC = system: A549 NSCLC

CN(C)CCCCNc1ccc(NCCCCN(C)C)c2c1C(=O)c1c(O)ccc(O)c1C2=O
GI50 (SR leukemia): 1.72 µM
TGI (SR leukemia): 5.01 µM
GI50 (786-0 renal): 1.76 µM
TGI (786-0 renal): 3.14 µM
GI50 (EKVX NSCLC): 1.81 µM
TGI (EKVX NSCLC): 3.82 µM
GI50 (MDA-MB-231 breast): 1.47 µM
TGI (MDA-MB-231 breast): 2.78 µM
GI50 (SNB-19 CNS): 13.2 µM
TGI (SNB-19 CNS): 26 µM
GI50 (OVCAR-5 ovarian): 1.66 µM
TGI (OVCAR-5 ovarian): 3.14 µM
GI50 (RXF 393 renal): 1.75 µM
TGI (RXF 393 renal): 11.2 µM
GI50 (U251 CNS): 1.69 µM
TGI (U251 CNS): 3.08 µM
GI50 (T-47D breast): 18.5 µM
TGI (T-47D breast): 33.2 µM
GI50 (A549 NSCLC): 1.57 µM
TGI (A549 NSCLC): 2.94 µM

CC(=O)ON=C1C=CC(=C(C#N)c2ccccc2)C=C1
GI50 (SR leukemia): 0.619 µM
TGI (SR leukemia): 16.5 µM
GI50 (786-0 renal): 1.19 µM
TGI (786-0 renal): 14.1 µM
GI50 (EKVX NSCLC): 6.96 µM
TGI (EKVX NSCLC): 42.4 µM
GI50 (MDA-MB-231 breast): 2.63 µM
TGI (MDA-MB-231 breast): > 28.5 µM
GI50 (SNB-19 CNS): 11.5 µM
TGI (SNB-19 CNS): > 57.5 µM
GI50 (OVCAR-5 ovarian): 3.22 µM
TGI (OVCAR-5 ovarian): 9.28 µM
GI50 (RXF 393 renal): 2.68 µM
TGI (RXF 393 renal): 11.5 µM
GI50 (U251 CNS): 0.622 µM
TGI (U251 CNS): 10.5 µM
GI50 (T-47D breast): 1.05 µM
TGI (T-47D breast): 11.3 µM
GI50 (A549 NSCLC): 3.09 µM
TGI (A549 NSCLC): > 36 µM

COC(=O)[C@]12CC[C@@H](C)[C@H](C)[C@@H]1C1=CC[C@@H]3[C@@](C)(CC#N)C4=C(C[C@@]3(C)[C@]1(C)CC2)OC[C@]4(C)C=O
GI50 (SR leukemia): 2.56 µM
TGI (SR leukemia): 7.44 µM
GI50 (786-0 renal): 11.6 µM
TGI (786-0 renal): 71.1 µM
GI50 (EKVX NSCLC): 4.32 µM
TGI (EKVX NSCLC): 48.7 µM
GI50 (MDA-MB-231 breast): 3.34 µM
TGI (MDA-MB-231 breast): 18.5 µM
GI50 (SNB-19 CNS): 3.77 µM
TGI (SNB-19 CNS): > 100 µM
GI50 (OVCAR-5 ovarian): 14.1 µM
TGI (OVCAR-5 ovarian): 35.8 µM
GI50 (RXF 393 renal): 12 µM
TGI (RXF 393 renal): 36.1 µM
GI50 (U251 CNS): 3.61 µM
TGI (U251 CNS): 19.2 µM
GI50 (T-47D breast): 2.77 µM
TGI (T-47D breast): 16.1 µM
GI50 (A549 NSCLC): 10.2 µM
TGI (A549 NSCLC): 25 µM

CCCCOC(=O)c1c(C)[nH]c(/C=C2\N=C(c3ccc[nH]3)C=C2OC)c1C
GI50 (SR leukemia): 0.0821 µM
TGI (SR leukemia): 1.47 µM
GI50 (786-0 renal): 0.267 µM
TGI (786-0 renal): 3.09 µM
GI50 (EKVX NSCLC): 0.46 µM
TGI (EKVX NSCLC): 4.88 µM
GI50 (MDA-MB-231 breast): 0.056 µM
TGI (MDA-MB-231 breast): 0.764 µM
GI50 (SNB-19 CNS): 1.18 µM
TGI (SNB-19 CNS): > 56.1 µM
GI50 (OVCAR-5 ovarian): 0.337 µM
TGI (OVCAR-5 ovarian): 2.47 µM
GI50 (RXF 393 renal): 0.537 µM
TGI (RXF 393 renal): 3.07 µM
GI50 (U251 CNS): 0.12 µM
TGI (U251 CNS): 1.76 µM
GI50 (T-47D breast): 0.347 µM
TGI (T-47D breast): 1.9 µM
GI50 (A549 NSCLC): 0.205 µM
TGI (A549 NSCLC): 15.2 µM

CC(=O)Nc1cc2c3c(cccc3c1)-c1ccccc1-2
GI50 (SR leukemia): 28.6 µM
TGI (SR leukemia): > 100 µM
GI50 (786-0 renal): 14.2 µM
TGI (786-0 renal): 40 µM
GI50 (EKVX NSCLC): 7.94 µM
TGI (EKVX NSCLC): 38.9 µM
GI50 (MDA-MB-231 breast): 10.6 µM
TGI (MDA-MB-231 breast): 25.8 µM
GI50 (SNB-19 CNS): 40.2 µM
TGI (SNB-19 CNS): > 100 µM
GI50 (OVCAR-5 ovarian): 16.7 µM
TGI (OVCAR-5 ovarian): 35.7 µM
GI50 (RXF 393 renal): 15.8 µM
TGI (RXF 393 renal): 34.9 µM
GI50 (U251 CNS): 39.3 µM
TGI (U251 CNS): > 100 µM
GI50 (T-47D breast): 37.3 µM
TGI (T-47D breast): > 100 µM
GI50 (A549 NSCLC): 3.72 µM
TGI (A549 NSCLC): > 100 µM

C=C(Br)COc1ccc2c(C)cc(=O)oc2c1
TGI (SR leukemia): > 100 µM
TGI (786-0 renal): > 100 µM
TGI (EKVX NSCLC): > 100 µM
TGI (MDA-MB-231 breast): > 100 µM
TGI (SNB-19 CNS): > 100 µM
TGI (OVCAR-5 ovarian): > 100 µM
TGI (RXF 393 renal): 81 µM
TGI (U251 CNS): > 100 µM
TGI (T-47D breast): 87.2 µM
TGI (A549 NSCLC): > 100 µM

COc1cc2c(cc1OCCCN1CCN(C(=S)SCCC(C#N)(c3ccccc3)c3ccccc3)CC1)N=C[C@@H]1CCCN1C2=O
GI50 (SR leukemia): 0.431 µM
GI50 (786-0 renal): 0.493 µM
TGI (786-0 renal): 1.08 µM
GI50 (EKVX NSCLC): 2.17 µM
TGI (EKVX NSCLC): 5.27 µM
GI50 (MDA-MB-231 breast): 1.32 µM
TGI (MDA-MB-231 breast): 3.19 µM
GI50 (SNB-19 CNS): 2.19 µM
GI50 (OVCAR-5 ovarian): 1.14 µM
TGI (OVCAR-5 ovarian): 2.44 µM
GI50 (RXF 393 renal): 0.192 µM
TGI (RXF 393 renal): 0.36 µM
GI50 (U251 CNS): 0.405 µM
TGI (U251 CNS): 1.43 µM
GI50 (T-47D breast): 1.58 µM
GI50 (A549 NSCLC): 1.25 µM
TGI (A549 NSCLC): 7.36 µM

CC[C@@]1(O)C(=O)OCc2c1cc1n(c2=O)Cc2c-1nc1cc(F)c(C)c3c1c2[C@@H](NC(=O)CO)CC3
GI50 (SR leukemia): < 0.01 µM
TGI (SR leukemia): > 100 µM
GI50 (786-0 renal): < 0.01 µM
TGI (786-0 renal): 0.439 µM
GI50 (EKVX NSCLC): 0.311 µM
TGI (EKVX NSCLC): > 100 µM
GI50 (MDA-MB-231 breast): 0.511 µM
TGI (MDA-MB-231 breast): > 100 µM
GI50 (SNB-19 CNS): < 0.01 µM
TGI (SNB-19 CNS): 2.53 µM
GI50 (OVCAR-5 ovarian): 0.115 µM
GI50 (RXF 393 renal): < 0.01 µM
TGI (RXF 393 renal): 0.0731 µM
GI50 (U251 CNS): < 0.01 µM
TGI (U251 CNS): 1.76 µM
GI50 (T-47D breast): < 0.01 µM
GI50 (A549 NSCLC): 0.0503 µM
TGI (A549 NSCLC): 7.51 µM

CC1(C)C(CC(=O)O)CCCC1CC(=O)O (centres undefined)
TGI (SR leukemia): > 100 µM
TGI (786-0 renal): > 100 µM
TGI (EKVX NSCLC): > 100 µM
TGI (MDA-MB-231 breast): > 100 µM
TGI (SNB-19 CNS): > 100 µM
TGI (OVCAR-5 ovarian): > 100 µM
TGI (RXF 393 renal): > 100 µM
TGI (U251 CNS): > 100 µM
TGI (T-47D breast): > 100 µM
TGI (A549 NSCLC): > 100 µM

O=C1OCC2=C1C(c1cccc(Cl)c1)c1cc3c(cc1N2CCO)CCC3 (centres undefined)
GI50 (SR leukemia): 0.0609 µM
TGI (SR leukemia): 21 µM
GI50 (786-0 renal): 0.0485 µM
TGI (786-0 renal): 10.8 µM
GI50 (EKVX NSCLC): 0.295 µM
TGI (EKVX NSCLC): 17.2 µM
GI50 (MDA-MB-231 breast): 0.217 µM
TGI (MDA-MB-231 breast): 2.21 µM
GI50 (SNB-19 CNS): 0.0644 µM
TGI (SNB-19 CNS): 17.3 µM
GI50 (OVCAR-5 ovarian): 0.143 µM
TGI (OVCAR-5 ovarian): 18.2 µM
GI50 (RXF 393 renal): 0.0238 µM
GI50 (U251 CNS): 0.0372 µM
TGI (U251 CNS): 4.5 µM
GI50 (T-47D breast): 0.0414 µM
TGI (T-47D breast): 23.2 µM
GI50 (A549 NSCLC): 0.0477 µM
TGI (A549 NSCLC): 6.45 µM

COCCn1c2c([n+](Cc3cnccn3)c1C)C(=O)c1ccccc1C2=O
GI50 (SR leukemia): < 0.0108 µM
TGI (SR leukemia): 6.85 µM
GI50 (786-0 renal): 0.0143 µM
TGI (786-0 renal): 0.0992 µM
GI50 (EKVX NSCLC): < 0.01 µM
TGI (EKVX NSCLC): 0.0162 µM
GI50 (MDA-MB-231 breast): < 0.01 µM
TGI (MDA-MB-231 breast): 0.013 µM
GI50 (SNB-19 CNS): < 0.01 µM
TGI (SNB-19 CNS): 0.0153 µM
GI50 (OVCAR-5 ovarian): 0.0308 µM
TGI (OVCAR-5 ovarian): 0.129 µM
GI50 (RXF 393 renal): 0.0156 µM
TGI (RXF 393 renal): 0.128 µM
GI50 (U251 CNS): < 0.01 µM
TGI (U251 CNS): < 0.01 µM
GI50 (T-47D breast): 0.0246 µM
TGI (T-47D breast): 0.153 µM
GI50 (A549 NSCLC): 0.0166 µM
TGI (A549 NSCLC): 0.0434 µM

Nc1cc(N)c2nc(NCCc3ccc(Cl)c(Cl)c3)cnc2c1
GI50 (SR leukemia): 3.9 µM
TGI (SR leukemia): 20.9 µM
GI50 (786-0 renal): 16.5 µM
TGI (786-0 renal): 32.9 µM
GI50 (EKVX NSCLC): 12.1 µM
TGI (EKVX NSCLC): 24.6 µM
GI50 (MDA-MB-231 breast): 4.72 µM
TGI (MDA-MB-231 breast): 16.5 µM
GI50 (SNB-19 CNS): 15.8 µM
TGI (SNB-19 CNS): 30 µM
GI50 (OVCAR-5 ovarian): 20 µM
TGI (OVCAR-5 ovarian): 34.6 µM
GI50 (RXF 393 renal): 13.8 µM
TGI (RXF 393 renal): 30.2 µM
GI50 (U251 CNS): 11.7 µM
TGI (U251 CNS): 23.9 µM
GI50 (T-47D breast): 2.83 µM
TGI (T-47D breast): 8.65 µM
GI50 (A549 NSCLC): 17.7 µM
TGI (A549 NSCLC): 34.2 µM
